Results reported in ChEMBL document CHEMBL5212743, “Selectivity Literature for EUbOPEN Chemogenomics Library wave 3” (2023).
Each block holds one compound with its values, some of them ahead of it.

Experiments:
[1] = biological target: T1, Myosin-IIIb (Homo sapiens) (UniProt Q8WXR4); test: Selectivity interaction (KinomeScan (DiscoverX)) EUB0000339a MYO3B; details: at 1 µM
T1 sequence (whole entry): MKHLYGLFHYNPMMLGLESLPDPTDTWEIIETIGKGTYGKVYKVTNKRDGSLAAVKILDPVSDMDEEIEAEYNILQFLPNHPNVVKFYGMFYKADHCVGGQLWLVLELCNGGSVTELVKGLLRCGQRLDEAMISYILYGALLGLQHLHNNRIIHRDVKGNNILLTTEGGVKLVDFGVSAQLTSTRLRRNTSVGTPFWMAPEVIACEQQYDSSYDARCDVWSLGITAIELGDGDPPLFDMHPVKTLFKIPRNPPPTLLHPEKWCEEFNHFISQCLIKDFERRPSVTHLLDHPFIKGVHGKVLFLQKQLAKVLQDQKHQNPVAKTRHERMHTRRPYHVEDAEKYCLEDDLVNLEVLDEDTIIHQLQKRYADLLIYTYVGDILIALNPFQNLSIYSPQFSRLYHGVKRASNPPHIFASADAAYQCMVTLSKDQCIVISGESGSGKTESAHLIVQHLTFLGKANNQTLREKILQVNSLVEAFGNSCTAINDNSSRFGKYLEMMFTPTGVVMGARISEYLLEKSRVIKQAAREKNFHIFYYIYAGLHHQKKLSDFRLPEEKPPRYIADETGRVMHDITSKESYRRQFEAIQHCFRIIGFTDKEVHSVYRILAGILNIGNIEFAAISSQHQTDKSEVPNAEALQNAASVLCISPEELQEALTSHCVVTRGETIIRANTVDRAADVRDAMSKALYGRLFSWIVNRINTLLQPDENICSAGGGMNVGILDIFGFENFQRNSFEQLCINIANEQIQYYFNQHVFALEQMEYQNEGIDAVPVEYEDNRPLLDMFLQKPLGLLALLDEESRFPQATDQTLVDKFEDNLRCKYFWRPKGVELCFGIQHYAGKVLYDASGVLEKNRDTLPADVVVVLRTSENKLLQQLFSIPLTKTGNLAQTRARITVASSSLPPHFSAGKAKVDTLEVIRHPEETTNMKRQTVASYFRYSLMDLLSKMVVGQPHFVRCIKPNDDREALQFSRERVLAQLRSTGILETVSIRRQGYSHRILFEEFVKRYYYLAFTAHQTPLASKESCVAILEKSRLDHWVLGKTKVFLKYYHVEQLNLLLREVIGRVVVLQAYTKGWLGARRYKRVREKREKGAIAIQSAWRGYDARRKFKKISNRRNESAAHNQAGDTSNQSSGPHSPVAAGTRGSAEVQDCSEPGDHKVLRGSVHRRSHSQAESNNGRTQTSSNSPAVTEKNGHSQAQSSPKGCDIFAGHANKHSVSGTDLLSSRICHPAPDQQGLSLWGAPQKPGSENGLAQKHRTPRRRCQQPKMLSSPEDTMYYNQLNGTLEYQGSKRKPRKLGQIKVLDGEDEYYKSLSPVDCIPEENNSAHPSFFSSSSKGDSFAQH

[2] = biological target: Serine/threonine-protein kinase Nek5 (Homo sapiens) (UniProt Q6P3R8); test: Selectivity interaction (KinomeScan (DiscoverX)) EUB0000339a NEK5; details: at 1 µM
[3] = biological target: Receptor-interacting serine/threonine-protein kinase 1 (Homo sapiens) (UniProt Q13546); test: Selectivity interaction (KinomeScan (DiscoverX)) EUB0000339a RIPK1; details: at 1 µM
[4] = biological target: Ephrin type-A receptor 4 (Homo sapiens) (UniProt P54764); test: Selectivity interaction (KinomeScan (DiscoverX)) EUB0000736a EPHA4; details: at 1 µM
[5] = biological target: Dual specificity tyrosine-phosphorylation-regulated kinase 1B (Homo sapiens, UniProt Q9Y463); test: Selectivity interaction (KinomeScan (DiscoverX)) EUB0000736a DYRK1B; details: at 1 µM
[6] = test system: Tyrosine-protein kinase ABL1 (Homo sapiens), P00519 [T315I]; test: (§1) Selectivity interaction (KinomeScan (DiscoverX)) EUB0000736a ABL1; details: at 10 µM
[7] = test system: Tyrosine-protein kinase ABL1 (Homo sapiens), P00519 [M351T]; test: as §1; details: at 1 µM
[8] = biological target: Ephrin type-A receptor 6 (Homo sapiens) (UniProt Q9UF33); test: Selectivity interaction (KinomeScan (DiscoverX)) EUB0000736a EPHA6; details: at 1 µM
Ephrin type-A receptor 6 (Homo sapiens), sequence (Q9UF33 whole entry): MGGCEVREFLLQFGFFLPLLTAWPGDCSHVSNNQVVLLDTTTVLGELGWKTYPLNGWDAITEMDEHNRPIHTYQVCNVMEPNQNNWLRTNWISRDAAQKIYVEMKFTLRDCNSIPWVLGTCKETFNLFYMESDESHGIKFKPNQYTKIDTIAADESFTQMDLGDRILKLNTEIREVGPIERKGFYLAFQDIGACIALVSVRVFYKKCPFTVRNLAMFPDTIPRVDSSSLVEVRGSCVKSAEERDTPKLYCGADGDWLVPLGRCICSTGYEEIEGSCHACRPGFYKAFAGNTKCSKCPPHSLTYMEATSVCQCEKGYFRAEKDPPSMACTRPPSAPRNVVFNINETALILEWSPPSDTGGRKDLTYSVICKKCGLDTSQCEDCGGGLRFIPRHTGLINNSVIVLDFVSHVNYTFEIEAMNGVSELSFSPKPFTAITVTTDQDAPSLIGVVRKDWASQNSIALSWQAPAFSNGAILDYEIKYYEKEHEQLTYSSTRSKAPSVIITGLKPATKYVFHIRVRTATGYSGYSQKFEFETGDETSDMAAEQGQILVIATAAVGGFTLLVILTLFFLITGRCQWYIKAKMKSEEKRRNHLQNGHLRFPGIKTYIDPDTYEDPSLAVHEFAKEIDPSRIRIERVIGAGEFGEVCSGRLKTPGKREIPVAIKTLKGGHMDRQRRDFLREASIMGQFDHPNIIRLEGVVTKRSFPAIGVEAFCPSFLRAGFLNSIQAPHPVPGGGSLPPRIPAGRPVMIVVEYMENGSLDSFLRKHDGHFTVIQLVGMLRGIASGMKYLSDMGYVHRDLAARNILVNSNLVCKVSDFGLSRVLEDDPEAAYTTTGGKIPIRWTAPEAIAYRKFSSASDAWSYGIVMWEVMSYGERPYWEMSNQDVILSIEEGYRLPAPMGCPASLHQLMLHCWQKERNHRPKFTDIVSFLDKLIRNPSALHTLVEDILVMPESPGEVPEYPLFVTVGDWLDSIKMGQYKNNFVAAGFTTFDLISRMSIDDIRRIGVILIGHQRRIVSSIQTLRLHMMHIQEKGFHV

[9] = biological target: Ephrin type-B receptor 3 (Homo sapiens) (UniProt P54753); test: Selectivity interaction (KinomeScan (DiscoverX)) EUB0000736a EPHB3; details: at 1 µM
[10] = biological target: Mast/stem cell growth factor receptor Kit (Homo sapiens, UniProt P10721); test: Selectivity interaction (KinomeScan (DiscoverX)) EUB0000634a KIT; details: at 1 µM
[11] = biological target: Platelet-derived growth factor receptor beta (Homo sapiens, UniProt P09619); test: Selectivity interaction (KinomeScan (DiscoverX)) EUB0000634a PDGFRB; details: at 1 µM
[12] = biological target: Mitogen-activated protein kinase 9 (Homo sapiens, UniProt P45984); test: Selectivity interaction (KinomeScan (DiscoverX)) EUB0000634a MAPK9; details: at 1 µM
Mitogen-activated protein kinase 9, sequence (P45984 whole entry, looked up): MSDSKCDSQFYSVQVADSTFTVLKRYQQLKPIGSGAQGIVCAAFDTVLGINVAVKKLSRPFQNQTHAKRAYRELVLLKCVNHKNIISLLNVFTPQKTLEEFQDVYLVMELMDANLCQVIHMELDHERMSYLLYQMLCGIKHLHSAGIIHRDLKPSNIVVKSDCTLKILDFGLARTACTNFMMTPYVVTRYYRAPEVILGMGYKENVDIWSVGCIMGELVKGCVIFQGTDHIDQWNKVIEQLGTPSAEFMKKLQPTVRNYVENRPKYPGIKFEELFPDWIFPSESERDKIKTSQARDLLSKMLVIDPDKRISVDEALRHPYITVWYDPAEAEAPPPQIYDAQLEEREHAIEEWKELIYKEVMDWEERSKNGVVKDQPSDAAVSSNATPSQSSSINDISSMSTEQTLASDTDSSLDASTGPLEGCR

[13] = biological target: T2, Homeodomain-interacting protein kinase 4 (Homo sapiens) (UniProt Q8NE63); test: Selectivity interaction (KinomeScan (DiscoverX)) EUB0000263b HIPK4; details: at 1 µM
T2 sequence (whole entry): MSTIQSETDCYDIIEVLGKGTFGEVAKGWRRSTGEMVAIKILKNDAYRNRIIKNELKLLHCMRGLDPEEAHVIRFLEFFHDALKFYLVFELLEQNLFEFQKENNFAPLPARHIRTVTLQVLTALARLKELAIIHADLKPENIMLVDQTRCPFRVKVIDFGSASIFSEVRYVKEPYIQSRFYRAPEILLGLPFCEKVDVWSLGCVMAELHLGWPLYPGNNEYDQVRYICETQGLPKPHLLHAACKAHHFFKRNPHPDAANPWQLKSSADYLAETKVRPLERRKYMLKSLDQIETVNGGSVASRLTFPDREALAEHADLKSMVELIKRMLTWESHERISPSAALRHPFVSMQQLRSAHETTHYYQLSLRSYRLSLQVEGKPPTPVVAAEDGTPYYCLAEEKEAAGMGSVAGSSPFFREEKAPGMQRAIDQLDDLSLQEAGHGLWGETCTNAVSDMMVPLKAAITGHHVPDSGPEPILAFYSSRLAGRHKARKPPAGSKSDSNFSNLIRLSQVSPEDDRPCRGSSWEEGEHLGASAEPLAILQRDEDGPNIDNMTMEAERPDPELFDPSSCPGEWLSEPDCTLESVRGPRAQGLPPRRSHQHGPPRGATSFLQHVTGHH

[14] = biological target: T3, Mitogen-activated protein kinase 12 (Homo sapiens) (UniProt P53778); test: Selectivity interaction (KinomeScan (DiscoverX)) EUB0000263b MAPK12; details: at 1 µM
T3 sequence (whole entry): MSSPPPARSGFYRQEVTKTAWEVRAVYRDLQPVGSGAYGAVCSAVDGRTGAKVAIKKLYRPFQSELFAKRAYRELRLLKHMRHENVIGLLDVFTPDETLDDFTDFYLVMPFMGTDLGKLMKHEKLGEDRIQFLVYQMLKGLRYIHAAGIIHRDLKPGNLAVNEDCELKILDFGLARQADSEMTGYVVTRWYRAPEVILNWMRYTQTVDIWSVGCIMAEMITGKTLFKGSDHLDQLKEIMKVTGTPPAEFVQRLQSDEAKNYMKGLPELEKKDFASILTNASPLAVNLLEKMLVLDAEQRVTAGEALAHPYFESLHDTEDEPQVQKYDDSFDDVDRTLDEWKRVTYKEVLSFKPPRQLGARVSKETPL

[15] = biological target: Voltage-dependent L-type calcium channel subunit alpha-1S (Homo sapiens) (UniProt Q13698); test: Selectivity interaction (Enzyme panel (Eurofins-Cerep)) EUB0000263b CACNA1S; details: at 10 µM
Voltage-dependent L-type calcium channel subunit alpha-1S (Homo sapiens), sequence (Q13698 whole entry): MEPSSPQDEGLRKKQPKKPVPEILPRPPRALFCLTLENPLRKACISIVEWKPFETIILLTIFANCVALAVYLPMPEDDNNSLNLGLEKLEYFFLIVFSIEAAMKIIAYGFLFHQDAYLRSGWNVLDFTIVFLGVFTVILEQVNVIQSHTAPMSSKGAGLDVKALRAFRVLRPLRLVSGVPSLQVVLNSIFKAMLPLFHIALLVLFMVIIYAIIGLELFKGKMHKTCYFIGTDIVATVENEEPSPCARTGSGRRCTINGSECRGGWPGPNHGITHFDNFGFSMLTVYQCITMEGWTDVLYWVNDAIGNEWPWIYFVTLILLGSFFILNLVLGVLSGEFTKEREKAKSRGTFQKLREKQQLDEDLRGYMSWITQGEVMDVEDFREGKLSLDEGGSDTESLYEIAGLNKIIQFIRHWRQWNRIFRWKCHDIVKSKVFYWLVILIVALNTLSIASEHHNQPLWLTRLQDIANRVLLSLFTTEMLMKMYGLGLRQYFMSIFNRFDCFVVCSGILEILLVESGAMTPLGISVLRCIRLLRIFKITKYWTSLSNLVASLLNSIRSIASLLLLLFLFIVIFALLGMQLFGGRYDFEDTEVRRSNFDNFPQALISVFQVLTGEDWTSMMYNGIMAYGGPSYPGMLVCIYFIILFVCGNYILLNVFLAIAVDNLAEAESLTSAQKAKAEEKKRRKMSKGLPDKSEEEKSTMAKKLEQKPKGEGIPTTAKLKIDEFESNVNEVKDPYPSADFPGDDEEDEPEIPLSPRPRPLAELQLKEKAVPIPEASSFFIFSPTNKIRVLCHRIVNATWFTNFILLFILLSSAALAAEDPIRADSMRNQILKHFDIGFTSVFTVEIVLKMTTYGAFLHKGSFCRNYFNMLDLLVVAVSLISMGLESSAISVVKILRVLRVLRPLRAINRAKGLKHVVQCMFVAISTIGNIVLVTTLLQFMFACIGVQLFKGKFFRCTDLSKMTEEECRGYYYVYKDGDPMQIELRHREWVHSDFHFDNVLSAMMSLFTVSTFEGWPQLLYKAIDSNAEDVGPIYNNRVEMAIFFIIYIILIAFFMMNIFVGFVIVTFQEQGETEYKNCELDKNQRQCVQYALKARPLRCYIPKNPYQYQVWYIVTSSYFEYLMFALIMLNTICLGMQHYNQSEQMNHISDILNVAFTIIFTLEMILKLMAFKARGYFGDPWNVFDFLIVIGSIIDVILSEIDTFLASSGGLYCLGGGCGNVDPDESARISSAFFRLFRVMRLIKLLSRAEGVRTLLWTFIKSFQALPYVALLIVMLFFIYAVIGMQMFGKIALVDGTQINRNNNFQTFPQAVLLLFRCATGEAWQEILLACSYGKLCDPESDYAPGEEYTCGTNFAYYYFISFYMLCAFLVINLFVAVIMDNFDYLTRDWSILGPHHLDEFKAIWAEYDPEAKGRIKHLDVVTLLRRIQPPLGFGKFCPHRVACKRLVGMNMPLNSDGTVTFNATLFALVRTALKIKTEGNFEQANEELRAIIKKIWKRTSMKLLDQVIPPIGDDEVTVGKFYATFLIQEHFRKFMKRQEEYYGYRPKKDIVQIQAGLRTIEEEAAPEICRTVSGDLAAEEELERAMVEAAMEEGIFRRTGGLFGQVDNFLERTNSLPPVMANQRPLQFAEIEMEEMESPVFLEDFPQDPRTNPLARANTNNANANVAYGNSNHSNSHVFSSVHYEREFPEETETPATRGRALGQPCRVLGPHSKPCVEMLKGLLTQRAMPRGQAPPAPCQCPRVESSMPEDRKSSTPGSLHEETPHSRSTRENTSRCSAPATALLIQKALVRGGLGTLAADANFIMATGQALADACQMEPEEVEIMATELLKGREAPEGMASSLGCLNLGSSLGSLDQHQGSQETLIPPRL

[16] = biological target: Voltage-dependent L-type calcium channel subunit alpha-1S (Homo sapiens) (UniProt Q13698); test: Selectivity interaction (CEREP panel (Eurofins)) EUB0000263b CACNA1S; details: at 10 µM
[17] = biological target: Megakaryocyte-associated tyrosine-protein kinase (Homo sapiens) (UniProt P42679); test: Selectivity interaction (KinomeScan (DiscoverX)) EUB0000332a MATK; details: at 1 µM
Megakaryocyte-associated tyrosine-protein kinase (Homo sapiens), sequence (P42679 whole entry): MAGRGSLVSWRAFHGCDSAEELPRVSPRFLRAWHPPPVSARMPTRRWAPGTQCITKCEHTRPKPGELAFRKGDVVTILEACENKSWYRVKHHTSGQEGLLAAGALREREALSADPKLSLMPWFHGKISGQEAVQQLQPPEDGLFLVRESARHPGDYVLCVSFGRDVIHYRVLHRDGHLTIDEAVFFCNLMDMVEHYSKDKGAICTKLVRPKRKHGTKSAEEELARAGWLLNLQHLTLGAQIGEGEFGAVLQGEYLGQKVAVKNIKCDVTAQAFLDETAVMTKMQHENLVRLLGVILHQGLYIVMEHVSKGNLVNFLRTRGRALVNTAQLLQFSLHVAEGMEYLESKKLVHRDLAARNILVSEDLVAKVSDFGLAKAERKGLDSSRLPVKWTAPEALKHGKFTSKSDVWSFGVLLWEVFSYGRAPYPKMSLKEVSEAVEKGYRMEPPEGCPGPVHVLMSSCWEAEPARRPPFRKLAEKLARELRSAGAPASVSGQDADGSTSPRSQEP

[18] = biological target: Maternal embryonic leucine zipper kinase (Homo sapiens) (UniProt Q14680); test: Selectivity interaction (KinomeScan (DiscoverX)) EUB0000332a MELK; details: at 1 µM
[19] = biological target: T4, G protein-coupled receptor kinase 3 (Homo sapiens) (UniProt P35626); test: Selectivity interaction (KinomeScan (DiscoverX)) EUB0000332a ADRBK2; details: at 1 µM
T4 sequence (whole entry): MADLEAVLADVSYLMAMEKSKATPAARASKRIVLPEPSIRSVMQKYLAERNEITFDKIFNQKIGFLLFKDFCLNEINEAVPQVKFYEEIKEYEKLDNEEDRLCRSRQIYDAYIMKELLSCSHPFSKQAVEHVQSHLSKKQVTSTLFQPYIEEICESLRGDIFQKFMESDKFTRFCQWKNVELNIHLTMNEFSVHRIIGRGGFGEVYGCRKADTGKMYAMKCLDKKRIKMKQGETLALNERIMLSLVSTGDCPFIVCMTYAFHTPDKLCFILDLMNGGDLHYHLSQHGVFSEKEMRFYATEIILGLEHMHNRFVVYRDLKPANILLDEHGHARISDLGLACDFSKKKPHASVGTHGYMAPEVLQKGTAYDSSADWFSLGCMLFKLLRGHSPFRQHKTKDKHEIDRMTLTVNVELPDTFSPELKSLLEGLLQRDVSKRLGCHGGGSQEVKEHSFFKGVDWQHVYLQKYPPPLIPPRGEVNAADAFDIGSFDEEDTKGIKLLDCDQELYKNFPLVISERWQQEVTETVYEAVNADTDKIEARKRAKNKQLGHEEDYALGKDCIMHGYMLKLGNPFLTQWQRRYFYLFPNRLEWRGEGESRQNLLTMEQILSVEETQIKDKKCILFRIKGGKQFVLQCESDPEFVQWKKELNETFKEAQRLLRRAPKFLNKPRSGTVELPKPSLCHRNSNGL

[20] = biological target: SRSF protein kinase 2 (Homo sapiens) (UniProt P78362); test: Selectivity interaction (KinomeScan (DiscoverX)) EUB0000332a SRPK2; details: at 1 µM
SRSF protein kinase 2 (Homo sapiens), sequence (P78362 whole entry, looked up): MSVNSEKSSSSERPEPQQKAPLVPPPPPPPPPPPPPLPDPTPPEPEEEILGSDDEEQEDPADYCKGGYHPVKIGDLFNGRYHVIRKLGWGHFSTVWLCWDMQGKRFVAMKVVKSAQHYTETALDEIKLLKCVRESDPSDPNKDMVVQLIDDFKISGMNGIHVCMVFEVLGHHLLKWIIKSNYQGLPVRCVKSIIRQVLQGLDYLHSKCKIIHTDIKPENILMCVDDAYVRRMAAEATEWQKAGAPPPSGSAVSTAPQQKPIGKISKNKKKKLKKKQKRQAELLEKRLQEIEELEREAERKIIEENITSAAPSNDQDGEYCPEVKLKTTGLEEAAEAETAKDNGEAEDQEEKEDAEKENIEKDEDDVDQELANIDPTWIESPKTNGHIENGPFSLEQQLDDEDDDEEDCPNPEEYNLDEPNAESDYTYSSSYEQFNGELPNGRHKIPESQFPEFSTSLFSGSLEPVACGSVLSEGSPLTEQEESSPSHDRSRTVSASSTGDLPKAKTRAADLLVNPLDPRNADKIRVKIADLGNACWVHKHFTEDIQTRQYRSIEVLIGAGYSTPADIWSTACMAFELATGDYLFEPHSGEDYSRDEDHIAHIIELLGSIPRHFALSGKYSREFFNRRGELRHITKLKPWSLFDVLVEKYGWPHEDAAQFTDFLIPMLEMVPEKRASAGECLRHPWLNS

[21] = biological target: Histamine H1 receptor (Homo sapiens, UniProt P35367); test: Selectivity interaction (GPCR panel (PDSP screen)) EUB0000350a HRH1; details: at 10 µM
Histamine H1 receptor, sequence (P35367 whole entry): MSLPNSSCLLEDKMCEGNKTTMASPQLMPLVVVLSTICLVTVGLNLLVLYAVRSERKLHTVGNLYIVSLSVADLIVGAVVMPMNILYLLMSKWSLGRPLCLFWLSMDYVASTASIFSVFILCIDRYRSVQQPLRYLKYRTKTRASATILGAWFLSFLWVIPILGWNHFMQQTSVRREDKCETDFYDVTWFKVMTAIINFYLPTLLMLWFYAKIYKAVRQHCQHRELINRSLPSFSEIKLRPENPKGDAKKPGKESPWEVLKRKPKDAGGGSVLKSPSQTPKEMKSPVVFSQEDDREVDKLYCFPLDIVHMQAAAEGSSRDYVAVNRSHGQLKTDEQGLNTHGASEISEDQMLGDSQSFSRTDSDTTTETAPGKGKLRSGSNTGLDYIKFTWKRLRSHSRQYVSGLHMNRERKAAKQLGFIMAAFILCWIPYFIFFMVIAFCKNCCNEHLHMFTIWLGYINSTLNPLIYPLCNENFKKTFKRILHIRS

% of control [1]: 52%
% of control [2]: 55%
% of control [3]: 55%
SMILES: CCCOc1ccc([C@@H]2[C@@H](C(=O)O)[C@H](c3ccc4c(c3)OCO4)CN2CC(=O)Nc2c(CC)cccc2CC)cc1

SMILES: Cn1cncc1[C@@](O)(COc1ccc(C#N)cc1-c1ccc(OC(F)(F)F)cc1)c1ccc(C#N)cc1
% of control [4]: 12%
% of control [5]: 38%
% of control [6]: 6.1%
% of control [7]: 6.2%
% of control [8]: 3%
% of control [9]: 6%

% of control [10]: 2%
% of control [11]: 0%
% of control [12]: 4%
SMILES: COc1ccc(Oc2cc(NCCC(F)(F)F)c3ncc(-c4ccc(C(=O)NC5CC5)c(C)c4)n3n2)c(F)c1F

% of control [13]: 4.4%
% of control [14]: 47%
% of inhibition [15]: 63.2%
% of inhibition [16]: 63.2%
SMILES: CO[C@H]1CC[C@H](CNc2ccc(S(=O)(=O)NC(=O)c3ccc(N4CCN(CC5=C(c6ccc(Cl)cc6)CC(C)(C)CC5)CC4)cc3Oc3cnc4[nH]ccc4c3)cc2[N+](=O)[O-])CC1

% of control [17]: 45%
% of control [18]: 46%
% of control [19]: 31%
% of control [20]: 59%
SMILES: CSc1cccnc1N1CCN(Cc2nc3ccccc3[nH]2)CC1

% of inhibition [21]: 36%
SMILES: CCCOc1ccc([C@H]2[C@H](C(=O)O)[C@@H](c3ccc4c(c3)OCO4)CN2CC(=O)Nc2c(CC)cccc2CC)cc1
